# Test results from patent US9321759B2, “Methods and use of bifunctional enzyme-building clamp-shaped molecules” (The Trustees Of The University Of Pennsylvania, priority 2011, dated 2016).
# Key:
# EGFR [1] = target: T1, EGFR (Homo sapiens, UniProt P00533); assay: Phosphorylation of EGFR Tyr residues in NE91 cells (Western blot); assay type: cell-based; design: expressed in transfected cells; host or cells: NE91 mouse fibroblasts; settings: FIG. 3
# Description: NE91 cells (mouse fibroblasts over-expressing wild type human type EGFR) were starved overnight, incubated with an exemplary mutation mimicking compound (designated EEO3, see below; 0.1 μM; lanes 2, 6 of FIG. 2), Tarceva® (0.1 μM; lanes 3, 7 of FIG. 2), or both (lanes 4, 8 of FIG. 2) for one hour, and harvested (lanes 1-4 of FIG. 2), or induced with EGF (50 ng/mL) for 15 minutes and harvested. Equal amounts of total protein were loaded on 10% SDS-PAGE gel, separated, transferred to a PVDF membrane, and probed with pY99, pERK antibodies (Santa Cruz Biotechnology), or antibodies against specific phosphotyrosines of EGFR (pY845, pY1068, pY992) or AKT phosphor-serine (473; Cell Signaling Technology). Total EGFR and γ-tubulin levels were determined as controls using the 1005 (Santa Cruz Biotechnology) and GTU88 (Sigma) Abs, respectively.
# To estimate the inhibitory activity of Compound C318 on EGFR signaling, its effect on the phosphorylation of specific Tyr residues of EGFR kinase was tested (see FIG. 3). The methods used were the same as described in Example 3.
# EGFR [2] = target: T1, EGFR; assay: EGFR kinase assay, HotSpot technology; assay type: biochemical; design: purchased Reaction Biology Corp. (Malvern, Pa.); settings: ATP 10 μmol/L, substrate poly[Glu:Tyr]
# Description: (§1) In an additional set of tests, EGFR assays were done to determine IC50 values using HotSpot^SM technology with the peptide substrate poly[Glu:Tyr] (4:1, 0.2 mg/ml). These tests were conducted by Reaction Biology Corp. (Malvern, Pa.; http://www.reactionbiology.com). Kinase reactions were carried out in 20 mmol/L HEPES (pH 7.5), 10 mmol/L MgCl2, 1 mmol/L EGTA, 0.02% Brij 35, 0.02 mg/mL bovine serum albumin, 2 mmol/L DTT, and 1% DMSO. The final concentration of ATP was 10 μmol/L. Purified recombinant kinases were incubated with serial 3-fold dilutions of test compounds starting at a final concentration of 1 μmol/L. ATP concentration was 10 μmol/L. Dose response curves were fitted using Prism 5.0 from Graph-Pad Software.
# EGFR (L858R, T790M) = target: T2, EGFR (L858R, T790M) (Homo sapiens, UniProt P00533, L858R/T790M); assay: Kinase assay with Tarceva-resistant EGFR mutant, HotSpot technology; assay type: biochemical
# T2 construct: purchased Reaction Biology Corp. (Malvern, Pa.)
# Description: as §1
# All these inhibitors were also tested by the same kinase assay using the Tarceva®-resistant EGFR kinase mutant, EGFR (L858R, T790M).
# [3] = tested on: EGFR-over-expressing NE91 cells; assay: Anchorage independent growth (soft agar colony formation) of NE91 cells; assay type: cell-based, mouse; settings: 0.1 μM, colonies counted after 3 weeks, FIG. 4(D)
# Description: To evaluate the inhibitory effect of C318 on cell proliferation in vitro, the compound was tested for inhibition of the anchorage independent growth of EGFR-over-expressing NE91 cells (FIG. 4). Anchorage independent growth was determined by assessing the colony-forming efficiency of cells suspended in soft agar. Cells (5×10^3) were suspended in a 1 ml top layer (0.375% agarose 10% FBS/DMEM) in 6-cm culture dishes containing a 3 ml cell-free feeder layer consisting of 0.5% agarose in DMEM supplemented with 10% FBS and 20 mM Hepes (pH 7.5). Culture dishes were fed by 0.7 ml 10% FBS/DMEM containing 0.1 uM of C318 or Tarceva® once every 5 days. Colonies were visualized and counted after 3 weeks after staining with p-iodonitrotetrazolium violet (1 mg/ml).
# T1 sequence (P00533 25-1210): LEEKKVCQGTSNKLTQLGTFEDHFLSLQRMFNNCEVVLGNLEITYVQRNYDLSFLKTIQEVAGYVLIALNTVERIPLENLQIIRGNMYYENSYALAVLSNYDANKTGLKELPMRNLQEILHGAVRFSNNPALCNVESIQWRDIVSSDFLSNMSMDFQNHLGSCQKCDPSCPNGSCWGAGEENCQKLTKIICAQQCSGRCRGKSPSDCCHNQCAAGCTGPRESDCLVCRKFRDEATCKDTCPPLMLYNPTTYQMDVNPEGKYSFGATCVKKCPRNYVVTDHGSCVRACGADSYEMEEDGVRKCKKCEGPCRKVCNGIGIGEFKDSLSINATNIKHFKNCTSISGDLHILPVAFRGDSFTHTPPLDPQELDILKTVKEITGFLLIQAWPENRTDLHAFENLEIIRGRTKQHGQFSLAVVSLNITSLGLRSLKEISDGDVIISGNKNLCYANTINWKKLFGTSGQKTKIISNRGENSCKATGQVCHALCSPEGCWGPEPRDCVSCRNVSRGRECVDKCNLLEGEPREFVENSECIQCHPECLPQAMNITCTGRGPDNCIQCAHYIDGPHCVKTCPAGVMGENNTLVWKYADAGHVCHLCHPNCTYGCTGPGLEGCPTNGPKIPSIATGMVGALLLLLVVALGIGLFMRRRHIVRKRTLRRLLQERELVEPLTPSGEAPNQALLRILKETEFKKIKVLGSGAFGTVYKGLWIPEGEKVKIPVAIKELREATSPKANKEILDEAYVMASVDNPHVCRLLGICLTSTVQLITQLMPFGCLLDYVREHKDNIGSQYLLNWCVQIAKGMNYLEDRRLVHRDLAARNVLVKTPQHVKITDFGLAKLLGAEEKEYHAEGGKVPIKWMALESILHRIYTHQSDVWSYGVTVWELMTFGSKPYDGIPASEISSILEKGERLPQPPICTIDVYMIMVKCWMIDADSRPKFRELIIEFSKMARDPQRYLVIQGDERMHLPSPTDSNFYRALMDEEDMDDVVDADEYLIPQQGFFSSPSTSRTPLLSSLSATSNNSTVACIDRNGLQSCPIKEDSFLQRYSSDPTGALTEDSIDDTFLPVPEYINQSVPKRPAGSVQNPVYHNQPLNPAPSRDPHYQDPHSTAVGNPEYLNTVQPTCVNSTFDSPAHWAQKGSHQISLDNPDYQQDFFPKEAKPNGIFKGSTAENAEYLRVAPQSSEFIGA
# T2 sequence (P00533 25-1210 T790M/L858R): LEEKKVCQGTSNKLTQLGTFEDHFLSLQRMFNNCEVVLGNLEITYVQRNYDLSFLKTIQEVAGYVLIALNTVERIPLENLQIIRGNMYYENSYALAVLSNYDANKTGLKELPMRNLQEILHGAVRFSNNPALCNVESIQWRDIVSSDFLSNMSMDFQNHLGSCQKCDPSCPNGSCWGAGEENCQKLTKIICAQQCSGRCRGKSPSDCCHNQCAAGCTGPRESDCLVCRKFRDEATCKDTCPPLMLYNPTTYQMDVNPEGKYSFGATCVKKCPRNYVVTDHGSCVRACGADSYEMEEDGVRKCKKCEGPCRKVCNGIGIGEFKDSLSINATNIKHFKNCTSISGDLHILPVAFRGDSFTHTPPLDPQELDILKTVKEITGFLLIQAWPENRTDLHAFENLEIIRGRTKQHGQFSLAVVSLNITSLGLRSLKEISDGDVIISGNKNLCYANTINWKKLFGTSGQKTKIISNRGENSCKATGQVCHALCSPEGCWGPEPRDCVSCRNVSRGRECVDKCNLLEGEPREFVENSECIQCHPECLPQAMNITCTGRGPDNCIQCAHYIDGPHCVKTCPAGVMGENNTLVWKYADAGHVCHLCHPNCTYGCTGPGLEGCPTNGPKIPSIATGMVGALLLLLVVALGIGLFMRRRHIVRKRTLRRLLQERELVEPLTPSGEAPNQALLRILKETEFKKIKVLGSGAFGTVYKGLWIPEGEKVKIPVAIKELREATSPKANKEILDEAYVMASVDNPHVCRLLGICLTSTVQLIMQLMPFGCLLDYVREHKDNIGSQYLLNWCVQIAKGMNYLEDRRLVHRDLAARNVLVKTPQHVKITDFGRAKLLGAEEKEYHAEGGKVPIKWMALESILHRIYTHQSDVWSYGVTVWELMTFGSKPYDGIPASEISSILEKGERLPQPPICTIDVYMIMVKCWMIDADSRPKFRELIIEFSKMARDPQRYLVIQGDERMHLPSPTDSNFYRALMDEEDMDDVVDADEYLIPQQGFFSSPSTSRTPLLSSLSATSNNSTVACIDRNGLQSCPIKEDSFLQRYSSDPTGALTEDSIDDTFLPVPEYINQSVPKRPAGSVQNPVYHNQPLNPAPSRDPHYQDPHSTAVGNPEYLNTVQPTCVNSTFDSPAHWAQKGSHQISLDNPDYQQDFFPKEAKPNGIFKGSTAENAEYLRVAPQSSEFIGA
smiles,measurement,setting,value
O=C(CSCCO)Nc1ccc2ncnc(Nc3cc(Cl)c(Cl)cc3F)c2c1 [Compound C300],inhibitory effects on EGFR Tyr phosphorylation relative to C-318,EGFR [1],not as strong as that of C-318
O=C(CSc1nnc(SCC2CC2)s1)Nc1ccc2ncnc(Nc3cc(Cl)c(Cl)cc3F)c2c1 [Compound C318F],inhibitory effects on EGFR Tyr phosphorylation relative to C-318,EGFR [1],not as strong as that of C-318
"O=C(O)CC(Sc1nn(CC(=O)Nc2ccc3ncnc(Nc4cc(Cl)c(Cl)cc4F)c3c2)c(=S)s1)C(=O)O (stereo not shown) [Compound C318N, 2-([4-[([4-[(4,5-dichloro-2-fluorophenyl)amino]quinazolin-6-yl]carbamoyl)methyl]-5-sulfanylidene-4,5-dihydro-1,3,4-thiadiazol-2-yl]sulfanyl)butanedioic acid]",IC50,EGFR [2],0.5 to 1 nM
same,"activity to inhibit EGFR (L858R, T790M) kinase, comparison","EGFR (L858R, T790M); FIG. 7",better activity than C318
same,inhibition at 0.1 µM,"EGFR (L858R, T790M); at 100 nM, ATP 10 μmol/L",~20%
O=C(O)CC(Sc1nnc(SCC(=O)Nc2ccc3ncnc(Nc4cc(Cl)c(Cl)cc4F)c3c2)s1)C(=O)O (stereo not shown) [Compound C318],IC50,EGFR [2],0.5 to 1 nM
same,"inhibition of EGFR(L858R, T790M)","EGFR (L858R, T790M); at 100 nM, ATP 10 μmol/L",about the same inhibition as Tarceva®
same,inhibition of anchorage independent growth,[3],more active than Tarceva®
same,inhibition of phosphorylation of Tyr 992 of EGFR,EGFR [1]; compared with Tarceva,but not Tyr 992
same,inhibition of phosphorylation of Tyr 1068 of EGFR,EGFR [1]; compared with Tarceva,stronger activity than Tarceva®
